Molecules are shown by their SMILES.

The test system of series [1] is A1AR. To be noted: weak A1AR agonist; Brown 1988; cited from earlier work.
The conditions of series [2]: oral form; Stohs 2011; cited from earlier work.
Series [3] deals with A1AR. Conditions: Ma 2010, Hibino 2009; cited from earlier work.
Series [4] can be described thus: Safety study: topical application to entire scalp with BP, HR and EKG holter monitoring. In kind it is in vivo, human. Conditions: topical application across the entire scalp, synephrine at up to 6 g. As for the experimental part: Use of weak acting A1AR agonists or agonists having a low affinity for all other adrenergic receptors, as described herein, can provide methods of treatment and/or prophylaxis that are a substantial improvement over conventional methods of use. Improvements can include enhancements in efficacy and/or safety. For example, safety tests were performed with embodiments of the composition using electrocardiogram (EKG) and blood pressure/heart rate (BP/HR) monitoring. […] Details of the study are described in the examples below.
A study was conducted to determine the safety of a topical solution containing 37% synephrine HCl (the composition of formula 01). 10 mL of the topical solution was applied to the entire scalp and rubbed thoroughly at a base line. An additional 10 mL was applied after 2 hours. Blood pressure (BP), heart rate (HR) and EKG measurements were taken using a wearable holter monitor.
In total, 40 female subjects ages 18-65 in good health were enrolled. 30 of the subjects received the active solution and 10 received the placebo (vehicle only). To evaluate the effect of the composition on systemic hemodynamic parameters, a holter monitor was placed on each subject. At baseline, BP and HR were recorded. BP, HR, and EKG data were collected over a 24-hour period via the holter monitor. […] EKG parameters (e.g., ST segments, arrhythmias, etc.) were normal throughout the 24 hour period.

In series [5] the test system is postjunctional alpha1-adrenoceptors. Conditions: Brown 1988; cited from earlier work.
For series [6], the system named is postjunctional alpha2-adrenoceptors. To be noted: Brown 1988; cited from earlier work.

`CNCC(O)c1ccc(O)cc1` (stereo not drawn) [synephrine, p-synephrine]: the “potency less than that of phenylephrine” value in the series on A1AR [1] was “approximately 150 fold”. The “cardiac or hemodynamic changes” value in series [2] is recorded as “not been shown to induce significant cardiac or hemodynamic changes”. Also, in the series with A1AR [3], the A1AR binding affinity result is recorded as “low”. The “adverse events (EKG and BP/HR monitoring)” value in series [4] is given as “No adverse events”.

For the compound `CNC[C@@H](O)c1ccc(O)cc1` [S-(+)-synephrine], the “potency of the (+) form relative to the (−) form” value in series [5] and in series [6] was “one to two orders of magnitude less” each time.

Source of the values: patent publication US20190038575A1, “Methods for Protecting Cells During Cancer Therapy” (Applied Biology, Inc., priority 2017, published 2019).
